Test results as given in patent publication US6844355B2 (Academic Pharmaceuticals, Inc., priority 1999, dated 2005).
“Also recorded” adds a separate entry of the source.

Tests used:
[1] = target: T1, KVLQT1+KCNE1 (IKs) (Homo sapiens, UniProt P51787); test: KVLQT1+KCNE1 (IKs) currents in Xenopus oocytes; assay type: cell-based
T1 construct: expressed in transfected cells; host or cells: Xenopus laevis oocytes (co-injection of hminK and KVLQT1 cRNA)
Method: Wild type human minK (KCNE1) and KVLQT1 cDNA are isolated from human cardiac and pancreas cDNA libraries and cloned into the pSP64 poly (A) vector (Promega). For transcription in oocytes, the minK is subcloned from genomic DNA using the MKEL and MKER primers. The final minK expression construct contains cDNA inserted in the plasmid vector (PROMEGA). For the injection into Xenopus oocytes, cRNA is prepared using the mCAP RNA capping kit (Stratagene) following linearization of the expression construct by restriction digestion with EcoRI for run-off transcription.
In-vitro transcription is performed with SP6 RNA polymerize using the mMessage Machine kit (Ambion). The final capped-cRNA product is resuspended in 0.1 mM KCL and stored at −80° C. The concentration of synthesized RNA is estimated by separating the denatured cRNA on a 1.5% agarose gel together with the 0.24-9.5 kb RNA ladder (Gibco-BRL).
KVLQT1+KCNE1 currents are recorded with a solution containing in mmol-L: NaCl-96; KCl-2 CaCl2-1.8; MgCl2-1.0; and HEPES 5, pH 7.4. The following testing protocols are used: a) I-V plot, oocytes are held at −80 mV, then step pulses from −60 mV to +40 mV in 20 mV increments of 18 seconds are applied returning to −40 mV; b) Single pulses, the same protocol is applied for control current and after drug perfusion for current measurement. From a holding potential of −80 mV to a test potential of +40 mV during 18 seconds a pulse is applied. […] The cell is either left at a resting potential of −80 mV or stimulated from a holding potential of −80 mV to a test potential of +40 mV during 1000 ms in a frequency range of 0.3 Hz.
Isolation of oocytes and cRNA injection. Xenopus laevis frogs are anesthetized by immersion in 0.2% Trocaine for 15-30 min. A small incision is made in the lateral ventral quadrant of the abdomen and a small piece of ovarian tissue is removed. The incision is then sutured at both the muscle and the cutaneous layers with fine silk thread and the animal is allowed to recover. The ovarian lobe is digested with 10 mg/ml type 1A collagenase (Sigma) in calcium-free solution for 30-60 min to remove the follicle layer. Stage V and VI oocytes are injected with 40 nl of a solution containing 10 to 50 ng/μl cRNA of either SCN5A, HERG, or hminK and KVLQT1, and then incubated at 19° C. in a modified bath solution for 2-8 days.

[2] = tested on: ileum; test: Ileum strip contractility, isometric muscle contractions; design: species or system Guinea pig; details: for Bursts / Slow waves / Spikes: mean ± standard deviation; for effect on ileum strip contractility, in words: Table 2 / FIG. 9
Method: Rat Ileum Studies and Characterization of Chiral Separation Products. Guinea pig ileum is harvested and placed in warm (37° C.) Krebs […] buffer and oxygenated (95% O2 and 5% CO2). Segments approximately 4.5 cm long are placed on a transducer (Gilson Instruments) and a preload of 1 gm is placed on the tissue. The tissue is then placed in a chamber and bathed in Tyrode's solution (37.5° C.) and oxygenated (95% O2 and 5% CO2). Muscle contractions are measured isometrically. After stable contractions are obtained, a study compound is added to the tissue bath and recordings are made until a new steady state of contraction is obtained. Following a washout period, a new steady state of contraction is recorded and then the procedure repeated with a second dose of the drug being evaluated. Changes in contraction magnitude are recorded as the percentage change from baseline. This procedure is a modification of the technique described by Van Neuten and associates (Van Neuten et al., Life Sci. 1978 28:453-458). […] The preparation permits the identification of slow waves of contraction, bursts of contraction of the smooth muscle and spikes of marked cross-sectional contraction. Each of the measures can be used as a measurement of contractile effect of an agent.

T1 sequence (P51787 whole entry): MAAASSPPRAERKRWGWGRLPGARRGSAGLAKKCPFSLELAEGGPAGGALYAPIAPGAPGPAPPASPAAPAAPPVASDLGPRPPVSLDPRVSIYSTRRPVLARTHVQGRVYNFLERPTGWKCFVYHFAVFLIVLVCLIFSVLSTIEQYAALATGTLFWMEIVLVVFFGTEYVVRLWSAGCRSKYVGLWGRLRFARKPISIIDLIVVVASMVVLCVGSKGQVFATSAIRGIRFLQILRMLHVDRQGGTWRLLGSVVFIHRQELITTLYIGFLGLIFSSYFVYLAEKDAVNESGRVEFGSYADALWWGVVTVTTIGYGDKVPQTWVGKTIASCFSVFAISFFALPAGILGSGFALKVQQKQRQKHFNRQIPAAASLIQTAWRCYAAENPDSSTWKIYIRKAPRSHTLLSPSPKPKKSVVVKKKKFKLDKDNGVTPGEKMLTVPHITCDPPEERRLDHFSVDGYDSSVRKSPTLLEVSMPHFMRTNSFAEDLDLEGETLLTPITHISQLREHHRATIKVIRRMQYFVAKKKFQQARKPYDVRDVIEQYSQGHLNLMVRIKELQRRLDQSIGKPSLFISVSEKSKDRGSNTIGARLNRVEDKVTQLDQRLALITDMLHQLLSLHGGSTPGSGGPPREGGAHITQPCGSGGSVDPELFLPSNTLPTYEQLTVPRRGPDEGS

reduction of IKs currents ([1]; concentrations from 10^−6 to 10^−4, respectively)	SMILES	effect on IKs current, in words ([1]; 100 μM)	% of block of IKs ([1]; 10^−4 Molar)	% of block of IKs ([1]; 10^−5 Molar)	% of block of IKs ([1]; 10^−6 Molar)	Bursts ([2]; 10^−5 M)	Slow waves ([2]; 10^−5 M)	Spikes ([2]; 10^−5 M)	Bursts ([2]; 10^−6 M)	Slow waves ([2]; 10^−6 M)	Spikes ([2]; 10^−6 M)	Bursts ([2]; 10^−7 M)	Slow waves ([2]; 10^−7 M)	Spikes ([2]; 10^−7 M)	effect on rat illeal strip tracings, in words ([2]; 10^−7 and 10^−6 M, FIG. 9 legend)	effect on ileum strip contractility, in words [2]
–	CCCCc1oc2ccccc2c1C(=O)c1cc(I)c(OCCN(CC)CC)c(I)c1 [AMIODARONE, amiodarone]	inhibits the current flow across the IKs channel	47 ± 1%	30 ± 3%	15 ± 1%	–	–	–	–	–	–	–	–	–	–	–
14 to 52%	C=C[C@H]1C[N@@]2CC[C@H]1C[C@@H]2[C@@H](O)c1ccnc2ccc(OC)cc12 [Quinidine, quinidine]	–	52 ± 5%	21 ± 7%	14 ± 5%	14 ± 4	6 ± 1	15 ± 1	7.7 ± 1.2	3.0 ± 0.5	13 ± 2	8 ± 2	3.3 ± 0.6	11 ± 1	reduces the magnitude of contraction	augmentation of slow wave contractility, burst contractility and spike contractility; also recorded: increases slow waves
–	C=C[C@H]1C[N@@]2CC[C@H]1C[C@H]2[C@H](O)c1ccnc2ccc(OC)cc12 [quinine]	–	–	–	–	–	–	–	–	–	–	–	–	–	–	no effect
